Measurements published in patent US20250152685A1, “METHOD OF MAKING A PERSONALIZED CANCER VACCINE” (FLOW PHARMA, INC., priority 2019, published 2025).

Target: DRB3*0202 (Homo sapiens, UniProt P01903+P79483, A212P/D57E/F66Y/L67A/R103Q/R218S/R40L/S89Y/T80R/V86D/Y55F/Y59H)
Test: peptide affinity binding assay (in-vitro peptide-MHC binding affinity)
Conditions: PADRE and DRB3*0202

Chain of DRB3*0202 (P01903 26-254 limits assumed): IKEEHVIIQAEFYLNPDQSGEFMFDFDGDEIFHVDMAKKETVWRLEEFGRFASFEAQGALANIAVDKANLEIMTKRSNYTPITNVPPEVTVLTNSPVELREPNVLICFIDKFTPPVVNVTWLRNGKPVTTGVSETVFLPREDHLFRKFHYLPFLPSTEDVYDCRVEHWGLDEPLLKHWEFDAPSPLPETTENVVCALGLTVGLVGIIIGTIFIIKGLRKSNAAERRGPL
Chain of DRB3*0202 (P79483 30-266 R40L/Y55F/D57E/Y59H/F66Y/L67A/T80R/V86D/S89Y/R103Q/A212P/R218S limits assumed): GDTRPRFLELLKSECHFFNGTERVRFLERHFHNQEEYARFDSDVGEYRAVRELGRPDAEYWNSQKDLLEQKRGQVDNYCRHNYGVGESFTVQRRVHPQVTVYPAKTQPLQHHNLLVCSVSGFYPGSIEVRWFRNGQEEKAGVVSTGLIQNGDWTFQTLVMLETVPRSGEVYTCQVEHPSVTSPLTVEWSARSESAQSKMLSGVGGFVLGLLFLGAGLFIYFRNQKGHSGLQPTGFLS

**Q.** With `CC(C)C[C@H](NC(=O)[C@@H](NC(=O)[C@H](Cc1c[nH]c2ccccc12)NC(=O)[C@H](C)NC(=O)[C@H](C)NC(=O)[C@@H](NC(=O)[C@H](Cc1ccccc1)NC(=O)[C@H](CCCCN)NC(=O)[C@H](C)N)C(C)C)[C@@H](C)O)C(=O)N[C@@H](CCCCN)C(=O)N[C@@H](C)C(=O)N[C@@H](C)C(=O)N[C@@H](C)C(=O)O` [PADRE] as the compound, how does the “peptide-MHC binding affinity before and after the addition of an infrared fluorophore ligand” value read?
**A.** Its value is “essentially unchanged”.
